Laboratory results taken from ChEMBL document CHEMBL1909294, “Translating clinical findings into knowledge in drug safety evaluation--drug induced liver injury prediction system (DILIps)” (PLoS Comput Biol, 2011).

Legend:
Hepatotoxicity [1] = system: Hepatotoxicity
Description: Drug Induced Liver Injury Prediction System (DILIps) validation dataset; compound DILI positive/negative as observed in O'Brien data

Hepatotoxicity [2] = system: Hepatotoxicity; remark: listed apart in the source
Description: Drug Induced Liver Injury Prediction System (DILIps) validation dataset; compound DILI positive/negative as observed in Pfizer data

Hepatotoxicity [3] = system: Hepatotoxicity; remark: listed apart in the source
Description: Drug Induced Liver Injury Prediction System (DILIps) validation dataset; compound DILI positive/negative as observed in LTKB-BD

Compound | DILI positive/negative (Hepatotoxicity [1]) | DILI positive/negative (Hepatotoxicity [3]) | DILI positive/negative (Hepatotoxicity [2]) | also measured
CCN(CC)Cc1cc(Nc2ccnc3cc(Cl)ccc23)ccc1O.Cl | – | – | – | DILI positive/negative (Hepatotoxicity [1]; Liver): 1
CC(=O)Oc1ccc(C(c2ccc(OC(C)=O)cc2)c2ccccn2)cc1 [BISACODYL] | 0 | – | – | –
Cc1ncc(CO)c(CO)c1O [PYRIDOXINE] | – | – | – | DILI positive/negative (Hepatotoxicity [1]; Liver): 0; DILI positive/negative (Hepatotoxicity [2]; Liver): 0
CC(C)Cc1ccc(CC(=O)O)cc1 [IBUFENAC] | – | 1 | 1 | –
C1CCC(C(CC2CCCCN2)C2CCCCC2)CC1 (centres undefined) [PERHEXILINE] | – | 1 | 1 | –
O=C1OCCN1/N=C/c1ccc([N+](=O)[O-])o1 [FURAZOLIDONE] | 1 | – | 1 | –
CC(C)(C)c1ccc(C(O)CCCN2CCC(C(O)(c3ccccc3)c3ccccc3)CC2)cc1 (centres undefined) [TERFENADINE] | 1 | – | 0 | –
CC[C@]1(O)CC[C@H]2[C@@H]3CCC4=CCCC[C@@H]4[C@H]3CC[C@@]21C | 1 | – | – | –
CC(=O)Oc1cc(C(C)C)c(OCCN(C)C)cc1C [MOXISYLYTE] | 0 | 1 | – | –
CC1=C(/C=C/C(C)=C/C=C/C(C)=C\C(=O)O)C(C)(C)CCC1 [ISOTRETINOIN] | 1 | – | 1 | –
O=C(COc1ccc(Cl)cc1)N1CCN(Cc2ccc3c(c2)OCO3)CC1 [FIPEXIDE] | – | 1 | 1 | –
O=C(OCC(O)CO)c1ccccc1Nc1ccnc2cc(Cl)ccc12 (centres undefined) [GLAFENINE] | – | – | – | DILI positive/negative (Hepatotoxicity [3]; Liver): 1; DILI positive/negative (Hepatotoxicity [2]; Liver): 1
Nc1ccc(C(=O)O)c(O)c1 [AMINOSALICYLIC ACID] | 1 | 1 | 1 | –
C=C1c2cccc(O)c2C(=O)C2=C(O)[C@]3(O)C(=O)C(C(N)=O)=C(O)[C@@H](N(C)C)[C@@H]3[C@@H](O)[C@H]12 [METHACYCLINE] | 1 | – | – | –
CCCCC1C(=O)N(c2ccccc2)N(c2ccccc2)C1=O [PHENYLBUTAZONE] | – | – | – | DILI positive/negative (Hepatotoxicity [1]; Liver): 1; DILI positive/negative (Hepatotoxicity [2]; Liver): 1
CC(=O)Nc1ccc(O)cc1 [ACETAMINOPHEN] | 1 | – | 1 | –
COc1cc2c(c(OC)c1OC)-c1ccc(OC)c(=O)cc1[C@@H](NC(C)=O)CC2 [COLCHICINE] | 1 | – | – | –
C[S+](C)[O-] [DIMETHYL SULFOXIDE] | 0 | – | – | –
C#CCN(C)Cc1ccccc1 [PARGYLINE] | 0 | – | 0 | –
CN(C)C(=O)Oc1cc(OC(=O)N(C)C)cc(C(O)CNC(C)(C)C)c1 (centres undefined) [BAMBUTEROL] | 0 | – | 0 | –
CCN(CC)C(=O)N1CCN(C)CC1 [DIETHYLCARBAMAZINE] | 1 | – | 1 | –
CCN(CC)CCCC(C)Nc1c2ccc(Cl)cc2nc2ccc(OC)cc12 (centres undefined) [QUINACRINE] | 1 | – | – | –

Compound | DILI positive/negative (Hepatotoxicity [1]) | DILI positive/negative (Hepatotoxicity [3]) | DILI positive/negative (Hepatotoxicity [2]) | also measured
Cc1nnc(NS(=O)(=O)c2ccc(N)cc2)s1 [SULFAMETHIZOLE] | 1 | – | 1 | –
O=c1[nH]c(=O)n([C@@H]2O[C@H](CO)[C@@H](O)[C@@H]2F)cc1I [FIALURIDINE] | 1 | 1 | 1 | –
COc1ccc(C(=O)NCc2cccnc2)cc1C(=O)NCc1cccnc1 [PICOTAMIDE] | 0 | – | – | –
CC(C)NNC(=O)c1ccncc1 [IPRONIAZID] | – | 1 | 1 | –
CC(C)(Oc1ccc(C2CC2(Cl)Cl)cc1)C(=O)O (centres undefined) [CIPROFIBRATE] | 1 | – | 1 | –
CC(C(=O)O)c1ccc(N2CC=CC2)c(Cl)c1 (centres undefined) [PIRPROFEN] | – | 1 | 1 | –
O[C@H]1[C@H](O)[C@@H](O)[C@H](O)[C@@H](O)[C@H]1O [INOSITOL] | 0 | – | 0 | –
CC(=O)O[C@H]1C[C@@]2(C)[C@@H](C[C@@H](O)[C@H]3[C@@]4(C)CC[C@@H](O)[C@@H](C)[C@@H]4CC[C@@]32C)/C1=C(\CCC=C(C)C)C(=O)O [FUSIDIC ACID] | 1 | – | – | –
O=C(O)COc1ccc(C(=O)c2cccs2)c(Cl)c1Cl | – | 1 | 1 | –
CO[C@@H]1[C@@H](OC(N)=O)[C@@H](O)[C@H](Oc2ccc3c(O)c(NC(=O)c4ccc(O)c(CC=C(C)C)c4)c(=O)oc3c2C)OC1(C)C [NOVOBIOCIN] | 1 | – | 1 | –
CC(N/C(=N\C#N)Nc1ccncc1)C(C)(C)C (centres undefined) [PINACIDIL ANHYDROUS] | 0 | – | 0 | –
O=C(O)CCCC[C@@H]1SC[C@@H]2NC(=O)N[C@@H]21 [BIOTIN] | 0 | – | 0 | –
Nc1c(CC(=O)O)cccc1C(=O)c1ccc(Br)cc1 [BROMFENAC] | – | 1 | 1 | –
CC(c1cc2ccccc2s1)N(O)C(N)=O (centres undefined) [ZILEUTON] | 1 | 1 | 1 | –
Cc1nc(C)c2c(n1)N(Cc1ccc(-c3ccccc3-c3nnn[nH]3)cc1)C(=O)CC2 [TASOSARTAN] | – | 1 | 1 | –
CN1Cc2c(N)cccc2C(c2ccccc2)C1 (centres undefined) [NOMIFENSINE] | – | 1 | 1 | –
Nc1ccc(S(=O)(=O)Nc2ccnn2-c2ccccc2)cc1 [SULFAPHENAZOLE] | 1 | – | – | –
CCOC(=O)C(C)(C)Oc1ccc(Cl)cc1 [CLOFIBRATE] | 1 | – | 1 | –
CN(C)CCN(Cc1cccs1)c1ccccn1 | 1 | – | 1 | –
C=C[C@H]1C[N@@]2CC[C@H]1C[C@H]2[C@H](O)c1ccnc2ccc(OC)cc12 [QUININE] | 1 | – | – | –
CCCN(CCC)C(=O)Cc1c(-c2ccc(Cl)cc2)nc2ccc(Cl)cn12 [ALPIDEM] | – | 1 | 1 | –
Cc1cc(NS(=O)(=O)c2ccc(N)cc2)no1 [SULFAMETHOXAZOLE] | – | – | – | DILI positive/negative (Hepatotoxicity [3]; Liver): 1; DILI positive/negative (Hepatotoxicity [1]; Liver): 1

Compound | DILI positive/negative (Hepatotoxicity [1]) | DILI positive/negative (Hepatotoxicity [3]) | DILI positive/negative (Hepatotoxicity [2]) | also measured
CCc1oc2ccccc2c1C(=O)c1cc(Br)c(O)c(Br)c1 [BENZBROMARONE] | – | 1 | 1 | –
C[N+](C)(C)CCOP(=O)(O)OP(=O)([O-])OC[C@H]1O[C@@H](n2ccc(N)nc2=O)[C@H](O)[C@@H]1O [CITICOLINE] | 0 | – | 0 | –
NC(=O)NS(=O)(=O)c1ccc(N)cc1 [SULFACARBAMIDE] | – | 1 | – | –
CN(C)C/C=C(/c1ccc(Br)cc1)c1cccnc1 [ZIMELDINE] | – | 1 | – | –
O=C(O)c1cc(-c2ccccc2)nc2ccccc12 [CINCHOPHEN] | – | 1 | 1 | –
O=C(O)COc1nn(Cc2ccccc2)c2ccccc12 [BENDAZAC] | – | – | – | DILI positive/negative (Hepatotoxicity [3]; Liver): 1
CN(C)CCCC1c2ccccc2Nc2ccc(Cl)cc21 (centres undefined) [CLOMACRAN] | – | 1 | – | –
CNC(=O)Oc1ccc2c(c1)[C@]1(C)CCN(C)[C@@H]1N2C [PHYSOSTIGMINE] | 0 | – | 0 | –
CC(C(=O)O)c1ccc2oc(-c3ccc(Cl)cc3)nc2c1 (centres undefined) [BENOXAPROFEN] | – | 1 | 1 | –
NC(N)=Nc1nc(CSCCN/C=N/S(=O)(=O)c2ccc(Br)cc2)cs1 [EBROTIDINE] | – | 1 | – | –
COc1cccc2c1[C@@H]1CN(CCCCn3c(=O)[nH]c4c(sc5ncc(-c6ccccc6)nc54)c3=O)C[C@@H]1CO2 [FIDUXOSIN] | – | 1 | – | –
CN(C)Cc1ccc(CSCCN/C(=C\[N+](=O)[O-])NCc2ccc3c(c2)OCO3)o1 [NIPEROTIDINE] | – | – | – | DILI positive/negative (Hepatotoxicity [3]; Liver): 1
NC(=O)OCC(COC(N)=O)c1ccccc1 [FELBAMATE] | 1 | 1 | 1 | –
CC[N+](C)(CC)CCOC(=O)C(O)(c1ccccc1)C1CCCCC1 (centres undefined) [OXYPHENONIUM] | 0 | – | 0 | –
CC1=NN(c2ccc(C)c(C)c2)C(=O)/C1=N\Nc1cccc(-c2cccc(C(=O)O)c2)c1O [ELTROMBOPAG] | – | – | – | DILI positive/negative (Hepatotoxicity [3]; Liver): 1
Cc1ncc(C[n+]2csc(CCO)c2C)c(N)n1 [THIAMINE ION] | – | – | – | DILI positive/negative (Hepatotoxicity [1]; Liver): 0; DILI positive/negative (Hepatotoxicity [2]; Liver): 0
CS(=O)(=O)Nc1ccc([N+](=O)[O-])cc1Oc1ccccc1 [NIMESULIDE] | – | – | – | DILI positive/negative (Hepatotoxicity [3]; Liver): 1; DILI positive/negative (Hepatotoxicity [1]; Liver): 1; DILI positive/negative (Hepatotoxicity [2]; Liver): 1
COLISTIMETHATE | – | 0 | – | –
CCc1oc2ccccc2c1C(=O)c1cc(I)c(O)c(I)c1 [BENZIODARONE] | – | 1 | – | –
CCC1(c2ccccc2)C(=O)NC(=O)NC1=O.CCCCCOC(CN1C(=O)N(CC(COCCCC)OC(N)=O)C(=O)C(CC)(c2ccccc2)C1=O)OC(N)=O.CCCCOCC(CN1C(=O)NC(=O)C(CC)(c2ccccc2)C1=O)OC(N)=O (centres undefined) [TETRABAMATE] | – | 1 | – | –
C[C@@](Cc1ccc(O)c(O)c1)(NN)C(=O)O.O [CARBIDOPA] | 0 | 1 | 0 | –
